{
  "source": "paper PMC6517818",
  "about": "“The yeast mitochondrial pyruvate carrier is a hetero‐dimer in its functional state” (The EMBO Journal, 2019)",
  "molecules": {"B1": {"name": "Mpc3 after nickel-affinity purification and Factor Xa cleavage of the histidine tag (natural protein, S. cerevisiae, UniProt P53311 1-146, looked up)", "chain": "MSASAFNFAFRRFWNSETGPKTVHFWAPTLKWGLVFAGLNDIKRPVEKVSGAQNLSLLATALIWTRWSFVIKPKNYLLASVNFFLGCTAGYHLTRIANFRIRNGDSFKQVIHYIIKGETPAAVAAKQTASTSMNKGVIGTNPPITH", "notes": "Mpc3, S. cerevisiae, UniProt P53311; codon-optimised synthetic gene; theoretical mass 17.1 kDa; Same construct as m2 after tag removal; The residues IEGR of the Factor Xa site probably remain at the C-terminus after cleavage (surmised); source: S. cerevisiae mitochondria (with Mpc1: W303-1B or SHY15; alone: SHY15), purified (nickel Sepharose, on-column Factor Xa cleavage) in LMNG and tetraoleoyl …"}, "B2": {"name": "Mpc1 (Mpc1/Mpc3 hetero-dimer, mitochondrial pyruvate carrier) (Saccharomyces cerevisiae S288C) (protein)", "chain 1": "MSQPVQRAAARSFLQKYINKETLKYIFTTHFWGPVSNFGIPIAAIYDLKKDPTLISGPMTFALVTYSGVFMKYALSVSPKNYLLFGCHLINETAQLAQGYRFLKYTYFTTDEEKKALDKEWKEKEKTGKQ", "chain 2": "KTVHFWAPTLKWGLVFAGLNDIKRPVEKVSGAQNLSLLATALIWTRWSFVIKPKNYLLASVNFFLGCTAGYHLTRIANFRIRNGDSFKQVIHYIIKGETPAAVAAKQTASTSMNKGVIGTNPPITH", "notes": "Mpc1/Mpc3 hetero-complex, untagged Mpc1 co-expressed with C-terminally tagged Mpc3, reconstituted in liposomes; with Mpc3 (P53311)"}, "B3": {"name": "Mpc1 (untagged), mitochondrial pyruvate carrier protein 1 from Saccharomyces cerevisiae (natural protein, S. cerevisiae, UniProt P53157 1-130, looked up)", "chain": "MSQPVQRAAARSFLQKYINKETLKYIFTTHFWGPVSNFGIPIAAIYDLKKDPTLISGPMTFALVTYSGVFMKYALSVSPKNYLLFGCHLINETAQLAQGYRFLKYTYFTTDEEKKALDKEWKEKEKTGKQ", "notes": "Mpc1, S. cerevisiae, UniProt P53157; codon-optimised synthetic gene; theoretical mass 15 kDa; also called unmodified Mpc1; source: S. cerevisiae mitochondria (SHY15 or W303-1B), co-expressed from pBEVY-GU with histidine-tagged Mpc3 or Mpc2; co-purified on nickel Sepharose in LMNG and tetraoleoyl cardiolipin"}},
  "key": {"[1]": {"molecular_target": "T1, Mpc1 (Mpc1/Mpc3 hetero-dimer, mitochondrial pyruvate carrier) (Saccharomyces cerevisiae, UniProt P53157+P53311)", "T1 construct": "Mpc1/Mpc3 hetero-complex, untagged Mpc1 co-expressed with C-terminally tagged Mpc3, reconstituted in liposomes; with Mpc3 (P53311)", "T1 sequence (P53157 1-130)": "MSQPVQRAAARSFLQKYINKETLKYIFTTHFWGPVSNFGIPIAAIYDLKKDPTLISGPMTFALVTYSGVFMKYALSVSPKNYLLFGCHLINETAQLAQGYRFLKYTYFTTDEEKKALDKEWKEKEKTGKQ", "T1 sequence (P53311 21-146)": "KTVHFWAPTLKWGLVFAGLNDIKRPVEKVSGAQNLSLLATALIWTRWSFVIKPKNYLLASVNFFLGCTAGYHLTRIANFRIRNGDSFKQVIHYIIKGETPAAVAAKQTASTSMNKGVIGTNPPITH", "experiment": "[…]-pyruvate homo-exchange inhibition in proteoliposomes", "format": "biochemical"}, "[2]": {"molecular_target": "T2, Mpc2 (Mpc1/Mpc2 hetero-complex, MPCFERM) (Saccharomyces cerevisiae, UniProt P38857+P53157)", "T2 construct": "Mpc1/Mpc2 hetero-complex with C-terminally tagged Mpc2, reconstituted in liposomes; with Mpc1 (P53157)", "T2 sequence (P38857 1-129)": "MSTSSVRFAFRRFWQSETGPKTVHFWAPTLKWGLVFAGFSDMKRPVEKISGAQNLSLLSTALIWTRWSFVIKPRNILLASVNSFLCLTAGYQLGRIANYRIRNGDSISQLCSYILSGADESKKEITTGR", "T2 sequence (P53157 1-130)": "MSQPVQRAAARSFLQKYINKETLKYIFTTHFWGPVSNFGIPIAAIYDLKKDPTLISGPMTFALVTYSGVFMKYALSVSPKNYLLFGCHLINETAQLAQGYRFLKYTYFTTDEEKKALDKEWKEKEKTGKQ", "experiment": "time course of pyruvate homo-exchange in proteoliposomes at ΔpH […]", "format": "biochemical"}, "[3]": {"molecular_target": "the molecule itself", "experiment": "SEC-MALS; SEC-MALLS, Superdex 200 10/300 GL; 20 mM Tris-HCl pH 7.4, 150 mM NaCl, 0.005% LMNG, 0.005 mg/ml TOCL; nickel-affinity-purified Mpc1/Mpc3 complex or Mpc3 alone injected; protein-conjugate method"}, "[4]": {"substrate": "CC(=O)C(=O)O", "experiment": "purified protein", "format": "biochemical, Saccharomyces cerevisiae"}, "[5]": {"molecular_target": "B1", "experiment": "SEC-MALS; SEC-MALLS, Superdex 200 10/300 GL; 20 mM Tris-HCl pH 7.4, 150 mM NaCl, 0.005% LMNG, 0.005 mg/ml TOCL; nickel-affinity-purified Mpc1/Mpc3 complex or Mpc3 alone injected; protein-conjugate method", "conditions": "both partners purified"}, "[6]": {"molecular_target": "T3, Mpc3 with a C-terminal Factor Xa cleavage site and octa-histidine tag (S. cerevisiae, UniProt P53311 1-146)", "T3 construct": "Mpc3, S. cerevisiae, UniProt P53311; codon-optimised synthetic gene; This is the tagged form as captured on the nickel resin; The complex was then released by on-column Factor Xa cleavage; also called Mpc3his; histidine-tagged Mpc3; source: S. cerevisiae mitochondria (SHY15 or W303-1B), co-expressed from pBEVY-GU with untagged Mpc1; LMNG-solubilised mitochondria, captured on nickel …", "T3 sequence (looked up)": "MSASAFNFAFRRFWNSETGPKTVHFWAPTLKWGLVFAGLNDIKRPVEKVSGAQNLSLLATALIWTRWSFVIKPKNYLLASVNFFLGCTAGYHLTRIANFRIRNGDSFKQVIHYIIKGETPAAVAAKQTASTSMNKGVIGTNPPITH", "experiment": "pull-down; nickel-affinity co-purification: untagged Mpc1 co-expressed with His8-tagged partner in yeast mitochondria; solubilised in 1% LMNG, 20 mM Tris-HCl pH 7.4, 150 mM NaCl, 4 °C; bound to nickel Sepharose, washed with 40 mM imidazole, 0.1% LMNG, 0.1 mg/ml TOCL; released by on-column Factor Xa cleavage; SDS-PAGE with Coomassie stain and peptide mass fingerprinting; Mpc1/Mpc3 also purified in Triton X-100, DMNG …", "conditions": "partners not purified"}},
  "note": "Where two headings read alike, the source gives them in different places.",
  "data": [
    {"molecule": "CN(Cc1ccccc1)c1ccc2cc(C(=O)O)c(=O)oc2c1", "note": "[7ACC2]", "values": [
      {"measurement": "IC50", "setting": "[1]; read-out: IC50", "result": "27 ± 13", "unit": "µM"}
    ]},
    {"molecule": "N#C/C(=C\\c1cn(-c2ccccc2)c2ccccc12)C(=O)O", "note": "[UK5099]", "values": [
      {"measurement": "IC50", "setting": "[1]; read-out: IC50", "result": "9 ± 7", "unit": "µM"}
    ]},
    {"molecule": "O=C(O)c1nn(Cc2ccc(Cl)cc2Cl)c2ccccc12", "note": "[lonidamine]", "values": [
      {"measurement": "IC50", "setting": "[1]", "result": "118 ± 24", "unit": "µM"}
    ]},
    {"molecule": "CC(=O)C(=O)O", "note": "[pyruvate]", "values": [
      {"measurement": "time course of pyruvate homo-exchange in proteoliposomes at ΔpH 1.6", "setting": "[2]", "result": "the Mpc1/Mpc2 hetero‐complex was also active for ΔpH‐dependent pyruvate transport (Fig EV4D)"}
    ]},
    {"molecule": "B1", "values": [
      {"measurement": "stoichiometry N", "setting": "[3]", "result": 2}
    ]},
    {"molecule": "B2", "values": [
      {"measurement": "Km", "setting": "[4]", "result": "342 ± 58", "unit": "µM"}
    ]},
    {"molecule": "B3", "values": [
      {"measurement": "stoichiometry N", "setting": "[5]", "result": "1 Mpc1:Mpc3"},
      {"measurement": "stoichiometry N", "setting": "[6]", "result": "1 Mpc1:Mpc3"}
    ]}
  ]
}
